According to ChEMBL document CHEMBL1201862, “PubChem BioAssay data set” (2004):
The source made the active and inactive calls.

Columns and labels:
Nonstructural protein 1 = Nonstructural protein 1 (Influenza A virus, UniProt Q194T2); assay type: functional, Influenza A virus (A/California/07/2009(H1N1))
[1] = inhibitors of intracellular T. cruzi replication, confirmation, NIH3T3 host cells, beta-gal luminescence (AID 2044); assay type: functional, cell-based;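 note: intracellular parasites grown in NIH/3T3 mouse fibroblasts as host cells; luminescent beta-galactosidase reporter signal from transgenic T. cruzi replicating inside host cells; inhibitors lower the luminescence signal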
[2] = cytotoxicity toward NIH3T3 fibroblasts, dose response, counter-screen, cell-based, ATP luminescence, mouse fibroblasts (AID 2010); assay type: functional;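 note: cells exposed to compound for about 90 hours before reading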
Vero [3] = assay: cells; assay type: functional; settings: Chlorocebus sabaeus
cells = assay type: functional
[4] = HepG2 cell cytotoxicity, dose response, cytotoxicity control for non-replicating M. tuberculosis project (AID 489018); assay type: functional; settings: Mycobacterium tuberculosis
[5] = THP-1 cell cytotoxicity, dose response, cytotoxicity control for non-replicating M. tuberculosis project (AID 489025); assay type: functional
[6] = microbe, parasite or virus in culture; assay type: functional; settings: Mycobacterium tuberculosis
Cytochrome P450 3A4 = Cytochrome P450 3A4 (Homo sapiens, UniProt P08684);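 note: CYP3A4 tested as one member of a cytochrome P450 panel screen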
Chain of Cytochrome P450 3A4 (P08684 whole entry): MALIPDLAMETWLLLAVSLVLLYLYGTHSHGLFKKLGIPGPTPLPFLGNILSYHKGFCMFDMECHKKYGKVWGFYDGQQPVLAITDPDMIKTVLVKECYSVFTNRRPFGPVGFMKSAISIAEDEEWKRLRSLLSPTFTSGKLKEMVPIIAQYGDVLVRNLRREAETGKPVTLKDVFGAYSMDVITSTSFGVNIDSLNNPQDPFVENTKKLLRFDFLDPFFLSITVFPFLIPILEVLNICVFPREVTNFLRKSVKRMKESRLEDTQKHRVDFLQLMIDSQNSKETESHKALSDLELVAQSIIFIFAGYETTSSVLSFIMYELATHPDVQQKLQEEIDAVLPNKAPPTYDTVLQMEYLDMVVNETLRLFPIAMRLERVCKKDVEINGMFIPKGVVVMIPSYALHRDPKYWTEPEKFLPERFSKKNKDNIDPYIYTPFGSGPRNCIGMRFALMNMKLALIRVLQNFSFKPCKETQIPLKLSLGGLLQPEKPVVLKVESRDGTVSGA

[7] = biological target: Glyceraldehyde-3-phosphate dehydrogenase (Homo sapiens, UniProt P04406)
Chain of Glyceraldehyde-3-phosphate dehydrogenase (P04406 whole entry): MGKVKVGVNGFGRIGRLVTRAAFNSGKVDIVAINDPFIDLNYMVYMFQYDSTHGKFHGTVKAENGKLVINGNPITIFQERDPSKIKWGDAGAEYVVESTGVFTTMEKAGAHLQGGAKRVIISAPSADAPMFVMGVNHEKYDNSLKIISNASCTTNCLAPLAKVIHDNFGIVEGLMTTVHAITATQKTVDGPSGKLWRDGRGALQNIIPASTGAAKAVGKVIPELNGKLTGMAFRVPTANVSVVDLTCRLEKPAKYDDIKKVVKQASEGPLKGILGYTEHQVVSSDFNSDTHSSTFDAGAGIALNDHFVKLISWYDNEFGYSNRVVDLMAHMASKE

[8] = biological target: T1, Alkaline phosphatase, tissue-nonspecific isozyme (Homo sapiens, UniProt P05186); assay: human TNAP enzyme inhibitors, SAR follow-up, biochemical, luminescent, dose response (AID 1056)
T1 sequence (P05186 whole entry): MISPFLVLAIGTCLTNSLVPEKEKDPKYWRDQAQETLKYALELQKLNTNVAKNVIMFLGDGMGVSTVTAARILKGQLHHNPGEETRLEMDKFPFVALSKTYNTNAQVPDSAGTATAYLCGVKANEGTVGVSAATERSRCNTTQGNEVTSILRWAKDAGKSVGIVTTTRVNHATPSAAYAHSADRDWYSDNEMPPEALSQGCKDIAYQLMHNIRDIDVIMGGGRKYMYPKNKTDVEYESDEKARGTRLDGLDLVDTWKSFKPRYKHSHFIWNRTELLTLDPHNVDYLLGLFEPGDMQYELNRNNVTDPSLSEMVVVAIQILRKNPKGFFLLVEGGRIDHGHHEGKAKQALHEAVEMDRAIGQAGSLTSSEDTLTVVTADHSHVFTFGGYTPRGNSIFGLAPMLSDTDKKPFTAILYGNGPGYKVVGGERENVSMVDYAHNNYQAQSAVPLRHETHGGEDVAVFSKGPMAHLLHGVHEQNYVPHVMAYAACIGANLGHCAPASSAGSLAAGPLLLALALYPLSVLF

Vero [9] = assay: cells; assay type: functional, cell-based; settings: Chlorocebus sabaeus
Cytochrome P450 2C9 [10] = biological target: T2, Cytochrome P450 2C9 (Homo sapiens, UniProt P11712)
T2 sequence (P11712 whole entry): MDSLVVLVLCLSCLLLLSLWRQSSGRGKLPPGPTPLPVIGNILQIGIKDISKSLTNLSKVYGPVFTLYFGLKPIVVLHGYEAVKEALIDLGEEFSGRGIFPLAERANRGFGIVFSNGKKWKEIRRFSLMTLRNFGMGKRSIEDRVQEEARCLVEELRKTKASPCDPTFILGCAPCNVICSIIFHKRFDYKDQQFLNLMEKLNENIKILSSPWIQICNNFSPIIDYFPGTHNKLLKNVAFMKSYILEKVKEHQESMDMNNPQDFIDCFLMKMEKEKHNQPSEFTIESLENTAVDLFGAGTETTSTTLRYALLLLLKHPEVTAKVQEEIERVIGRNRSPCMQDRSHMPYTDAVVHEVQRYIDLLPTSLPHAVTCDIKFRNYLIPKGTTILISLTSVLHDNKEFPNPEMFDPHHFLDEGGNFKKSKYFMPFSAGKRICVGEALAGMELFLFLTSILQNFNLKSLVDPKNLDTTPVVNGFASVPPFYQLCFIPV

Cytochrome P450 2D6 = Cytochrome P450 2D6 (Homo sapiens, UniProt P10635);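 note: CYP2D6 member of a cytochrome P450 panel assay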
Chain of Cytochrome P450 2D6 (P10635 whole entry): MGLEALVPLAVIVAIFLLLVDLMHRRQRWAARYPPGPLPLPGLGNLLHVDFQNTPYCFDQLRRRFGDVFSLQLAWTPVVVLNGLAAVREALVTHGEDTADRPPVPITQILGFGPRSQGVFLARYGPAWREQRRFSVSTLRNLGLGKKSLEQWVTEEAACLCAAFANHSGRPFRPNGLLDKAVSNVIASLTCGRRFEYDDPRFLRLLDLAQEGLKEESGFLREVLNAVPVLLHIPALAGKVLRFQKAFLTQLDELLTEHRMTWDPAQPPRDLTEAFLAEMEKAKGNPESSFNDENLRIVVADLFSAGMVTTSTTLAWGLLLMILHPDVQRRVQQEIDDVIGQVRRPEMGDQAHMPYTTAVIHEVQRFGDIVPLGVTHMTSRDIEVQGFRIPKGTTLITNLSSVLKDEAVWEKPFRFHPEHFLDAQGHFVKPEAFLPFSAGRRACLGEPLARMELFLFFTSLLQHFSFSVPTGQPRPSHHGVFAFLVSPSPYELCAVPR

Escherichia coli = assay: microbe, parasite or virus in culture
[11] = biological target: T3, Corticotropin-releasing factor receptor 2/Corticotropin-releasing factor-binding protein (Homo sapiens, UniProt P24387+Q13324); assay: Dose Response confirmation of uHTS hits for small molecule antagonists of the CRF-binding protein and CRF-R2 receptor complex.; assay type: functional; settings: read-out: IC50_Mean
T3 sequence (Q13324 whole entry): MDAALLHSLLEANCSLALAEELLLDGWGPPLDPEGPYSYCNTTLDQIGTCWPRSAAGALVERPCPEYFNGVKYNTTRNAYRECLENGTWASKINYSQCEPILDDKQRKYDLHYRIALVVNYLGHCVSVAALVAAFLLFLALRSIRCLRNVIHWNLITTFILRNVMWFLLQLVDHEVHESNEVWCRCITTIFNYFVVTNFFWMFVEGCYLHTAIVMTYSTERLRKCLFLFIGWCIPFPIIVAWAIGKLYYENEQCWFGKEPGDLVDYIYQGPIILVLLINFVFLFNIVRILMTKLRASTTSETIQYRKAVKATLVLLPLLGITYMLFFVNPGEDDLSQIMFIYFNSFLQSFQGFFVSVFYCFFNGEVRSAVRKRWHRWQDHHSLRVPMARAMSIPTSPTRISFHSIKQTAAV
T3 sequence (P24387 whole entry): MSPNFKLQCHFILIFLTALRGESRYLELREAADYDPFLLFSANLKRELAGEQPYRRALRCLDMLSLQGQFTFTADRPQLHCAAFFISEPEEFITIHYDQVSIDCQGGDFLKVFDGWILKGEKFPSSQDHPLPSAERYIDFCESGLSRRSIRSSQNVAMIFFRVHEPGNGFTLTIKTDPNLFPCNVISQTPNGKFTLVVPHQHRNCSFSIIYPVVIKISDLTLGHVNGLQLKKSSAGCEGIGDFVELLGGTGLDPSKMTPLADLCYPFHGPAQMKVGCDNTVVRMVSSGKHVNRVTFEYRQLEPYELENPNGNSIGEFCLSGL

[12] = biological target: T3, Corticotropin-releasing factor receptor 2/Corticotropin-releasing factor-binding protein; assay: activators of CRF receptor 2 with binding protein – uHTS hits, confirmation (AID 602473); assay type: functional; settings: read-out: EC50_Mean
Cytochrome P450 2C19 = Cytochrome P450 2C19 (Homo sapiens, UniProt P33261); assay: Cytochrome panel assay with activity outcomes. Panel member name: p450-cyp2c19 Compounds with AC50 equal or less than 10 uM are considered active; assay type: functional; settings: read-out: AC50
Chain of Cytochrome P450 2C19 (P33261 whole entry): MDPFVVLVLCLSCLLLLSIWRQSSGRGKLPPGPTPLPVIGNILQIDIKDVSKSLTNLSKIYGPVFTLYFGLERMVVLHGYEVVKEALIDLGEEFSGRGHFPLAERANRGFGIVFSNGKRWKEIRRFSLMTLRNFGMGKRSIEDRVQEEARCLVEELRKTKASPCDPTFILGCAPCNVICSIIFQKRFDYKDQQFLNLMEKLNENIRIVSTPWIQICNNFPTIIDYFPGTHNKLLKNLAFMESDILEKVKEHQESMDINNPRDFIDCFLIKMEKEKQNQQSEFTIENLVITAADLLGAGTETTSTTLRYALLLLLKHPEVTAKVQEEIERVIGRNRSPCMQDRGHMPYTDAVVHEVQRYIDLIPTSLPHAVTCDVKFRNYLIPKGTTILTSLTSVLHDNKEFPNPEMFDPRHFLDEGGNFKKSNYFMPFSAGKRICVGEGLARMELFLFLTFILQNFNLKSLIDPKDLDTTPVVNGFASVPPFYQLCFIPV

Cytochrome P450 2C9 [13] = biological target: T2, Cytochrome P450 2C9; remark: listed apart in the source
[14] = inhibitors of firefly luciferase expression or activity, dose response, H4 neuroglioma cells, luminescence (AID 1990); assay type: functional, cell-based
[15] = Luminescence Cell-Based Dose Response HTS to Identify Inhibitors of 5'UTR Stem-Loop Driven Prion Protein mRNA Translation in H4 Neuroglioblastoma Cells. [Related pubchem assays: 1827 (Project Summary), 1813 (Primary HTS)]; assay type: functional
BJ [16] = assay: cytotoxicity toward BJ-TERT-LT-ST fibroblasts, dose response, cell-based, RAS-independent, luminescence (AID 1935); assay type: functional; settings: Homo sapiens;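 note: BJ fibroblasts immortalized with TERT plus LT and ST oncogenes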
BJ [17] = assay: cells; assay type: functional, cell-based; settings: Homo sapiens
[18] = inhibitors of SNCA 5'UTR-driven reporter translation, confirmation, H4 neuroglioma cells, luminescence (AID 1988); assay type: functional, cell-based
[19] = cytotoxicity toward DRD oncogenic fibroblasts, dose response, cell-based, non-viral oncogenic, luminescence (AID 1934); assay type: functional; settings: Homo sapiens
BJ [20] = assay: cytotoxicity toward BJ-TERT fibroblasts, dose response, cell-based, RAS-independent, luminescence (AID 1933); assay type: functional; settings: Homo sapiens
INS1 = assay: beta cell apoptosis inhibitors, cytokine rescue, dose response, luminescence, retest (AID 449756); assay type: functional, cell-based; settings: Rattus norvegicus;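 note: cell death triggered by IL-1 beta plus TNF-alpha plus IFN-gamma mixture; protective hits raise ATP signal compared with cytokine alone wells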
[21] = Luminescence Cell-Based Dose Response HTS to Identify Activators of Luciferase Translation or Activity in H4 […] Cells. [Related pubchem assays: 1829 (Project Summary), 1814 (Primary HTS)]; assay type: functional

Chain of Nonstructural protein 1 (Q194T2 whole entry): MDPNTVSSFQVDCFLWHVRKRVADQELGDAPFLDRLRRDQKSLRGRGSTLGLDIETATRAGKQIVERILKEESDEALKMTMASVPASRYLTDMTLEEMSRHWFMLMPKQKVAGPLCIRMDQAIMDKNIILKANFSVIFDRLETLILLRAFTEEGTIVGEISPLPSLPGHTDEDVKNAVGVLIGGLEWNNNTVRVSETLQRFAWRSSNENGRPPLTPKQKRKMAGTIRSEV

In the case of O=[N+]([O-])c1ccc(N2CCOCC2)cc1NC(c1ccccc1)c1ccccc1, the IC50 (Nonstructural protein 1) is reported as > 100 µM (active).
With NC(=O)C1CCN(c2oc(-c3ccccc3)nc2S(=O)(=O)c2ccc(Br)cc2)CC1 the IC50 (Nonstructural protein 1) was > 100 µM (active).
In the case of CC1C(=O)C(C)C(c2ccc(Br)cc2)NC1c1ccc(Br)cc1 (stereo unspecified), the EC50 [1] is reported as 1.11 µM (active), the EC50 [2] is reported as > 60 µM (not active) and the CC50 (Vero [3]) is reported as > 25 µM (active).
With CC1=NN(C(=O)c2ccc(Br)cc2)C(O)(c2ccccc2)C1 (stereo unspecified) the IC50 (cells) was 22.4 µM (active), the CC50 [4] was > 20 µM (active) and the CC50 [5] was 22.1 µM (active). The CC50 [6] was > 40 µM (active).
In the case of CCOC(=O)C1C(=O)C=C(c2ccc(C)cc2)CC1c1ccco1 (stereo unspecified), the AC50 (Cytochrome P450 3A4) is reported as “inconclusive”.
In the case of CC(=O)Nc1n[nH]c(SCc2ccc(Br)cc2)n1, the IC50 [7] is reported as > 100 µM (not active) and the IC50 [8] is reported as > 100 µM (inactive).
With O=C(c1ccc([N+](=O)[O-])o1)N1CCc2ccccc21 the CC50 (Vero [3]) was > 25 µM (active).
In the case of C=CC/N=c1/scc(-c2ccccc2)n1/N=C/c1ccccn1, the IC50 (Vero [9]) is reported as 0.98 µM (active).
With O=S(=O)(c1ccccc1)N1CCC2(CCN(C(c3ccccc3)c3ccccc3)CC2)CC1 the AC50 (Cytochrome P450 3A4) was “inconclusive”.
In the case of CCOC(=O)c1c(NC(=O)c2c(-c3ccccc3)noc2C)sc(C)c1-c1ccccc1, the EC50 [1] is reported as 0.805 µM (active), the IC50 (Vero [9]) is reported as < 0.05 µM (active) and the EC50 [2] is reported as 12.5 µM (active).
For c1ccc(COc2nsnc2N2CCOCC2)cc1, the IC50 (Nonstructural protein 1) was > 100 µM (active).
With O=C(O)C1CCC(=O)N(C2CC2)C1c1ccccc1 (stereo unspecified) the AC50 (Cytochrome P450 3A4) was “inconclusive”.
For COc1ccccc1NC(=O)CN1CCC(C(=O)c2ccc(F)cc2)CC1, the AC50 (Cytochrome P450 2C9 [10]) was “inconclusive” and the AC50 (Cytochrome P450 2D6) was 25.1 µM (inconclusive).
With Cn1c(=O)c2c(nc(NN/C=C3/C(=O)NC(=S)N(c4ccccc4)C3=O)n2C)n(C)c1=O the IC50 (Nonstructural protein 1) was 20.9 µM (active).
In the case of CC(=O)NC1=NN(C(C)=O)C2(S1)C(=O)N(C(C)C)c1ccc(C)cc12 (stereo unspecified), the AC50 (Escherichia coli) is reported as > 150 µM (inactive).
In the case of COc1ccc(Cc2nnc(N3C(=O)[C@H]4CC=CC[C@H]4C3=O)[nH]2)cc1, the IC50 [7] is reported as > 100 µM (not active) and the IC50 [8] is reported as 96 µM (active).
In the case of O=C(CCCc1ccccc1)N1CCN(c2ccc([N+](=O)[O-])cc2)CC1, the AC50 (Cytochrome P450 3A4) is reported as “inconclusive”, the IC50 [11] is reported as > 47.1 µM (inactive) and the EC50 [12] is reported as > 53 µM (inactive).
In the case of C=CCc1cccc2cc(C(=O)N(CC)CC)c(=O)oc12, the AC50 (Cytochrome P450 2C19) is reported as 28.2 µM (inconclusive) and the AC50 (Cytochrome P450 2C9 [10]) is reported as “inconclusive”.
For CC1CCN(C2=C(NS(=O)(=O)c3ccc(Br)cc3)C(=O)c3ccccc3C2=O)CC1, the IC50 (Nonstructural protein 1) was 10.8 µM (active).
With Cc1ccc(S(=O)(=O)Oc2ccc(/C=C(/NC(=O)c3ccccc3)C(=O)Nc3ccccc3)cc2)cc1 the AC50 (Cytochrome P450 2C19) was 0.316 µM (inconclusive), the AC50 (Cytochrome P450 2C9 [13]) was 0.316 µM (inconclusive) and the AC50 (Cytochrome P450 3A4) was “inconclusive”.
With CCCNc1nc(NCC)nc(OC)n1 the AC50 (Cytochrome P450 2C19) was 17.8 µM (inconclusive) and the AC50 (Cytochrome P450 2C9 [10]) was “inconclusive”.
For CN(C)c1ncc2nc(-c3ccc(F)cc3)c(=O)n(Cc3ccc(F)cc3)c2n1, the AC50 (Cytochrome P450 2C9 [10]) was “inconclusive” and the AC50 (Cytochrome P450 3A4) was “inconclusive”.
For Cc1cc(C(=O)OCC(=O)NCc2ccco2)c(C)n1-c1ccc(F)cc1, the EC50 [14] was > 120 µM (not active), the EC50 [15] was 9.52 µM (active) and the EC50 (BJ [16]) was 4.61 µM (active). The EC50 (BJ [17]) was 36 µM (active), the EC50 [18] was 4.93 µM (active) and the EC50 [19] was 16.7 µM (active). The EC50 (BJ [20]) was 9.71 µM (inconclusive).
With COCCNCC(=O)NC12CC3CC(CC(C3)C1)C2 the IC50 (Vero [9]) was 16.2 µM (active).
With CCCCc1ccc(NC(=N)Nc2nc(C)cc(C)n2)cc1 the EC50 [1] was 1.71 µM (active), the EC50 [2] was 9.01 µM (active) and the CC50 (Vero [3]) was 7.63 µM (active). For the same compound, the AC50 (INS1) was 4.27 µM (active).
In the case of Cc1ccc(NC2=NC(=O)/C(=C/c3ccc(O)c([N+](=O)[O-])c3)S2)cc1Cl, the IC50 [7] is reported as > 100 µM (not active).
With CN1CCN(c2ccc([N+](=O)[O-])cc2C(=O)c2ccc(Br)cc2)CC1 the EC50 [14] was 11.6 µM (active), the EC50 [15] was 12.6 µM (active) and the EC50 (BJ [16]) was 5.07 µM (inconclusive). For the same compound, the EC50 (BJ [17]) was 28.9 µM (active), the EC50 [18] was 4.21 µM (active) and the EC50 [19] was 4.11 µM (active). For the same compound, the EC50 (BJ [20]) was 4.96 µM (active).
With O=S(=O)(c1ccc(Cl)cc1)N1CCN(C(=S)Nc2ccc(F)c(Cl)c2)CC1 the IC50 (Vero [9]) was > 25 µM (active) and the CC50 (Vero [3]) was > 25 µM (active).
For COc1cccc(NC(=O)c2cccc(C(=O)Nc3cccc(OC)c3)n2)c1, the AC50 (Escherichia coli) was 32.4 µM (active).
With COC(=O)c1cc(-c2ccc(C)cc2C)n[nH]1 the IC50 [7] was > 100 µM (not active) and the IC50 [8] was 1.62 µM (active).
In the case of O=C1CN(S(=O)(=O)c2ccccc2C(F)(F)F)CCN1, the AC50 (Escherichia coli) is reported as 28.5 µM (active).
In the case of CCOC(=O)c1cc(-c2ccc3c(c2)OCCO3)n[nH]1, the IC50 [7] is reported as > 100 µM (not active), the IC50 [8] is reported as 6.04 µM (active) and the EC50 [21] is reported as 0.345 µM (active).
In the case of CCCCCCCCCCCCCCCCCC(=O)O[C@H](CC(=O)O)C[N+](C)(C)C, the AC50 (Cytochrome P450 2C9 [10]) is reported as “inconclusive”.
In the case of COc1ccc(Br)cc1S(=O)(=O)Nc1ccc2ccccc2c1, the IC50 [7] is reported as > 10 µM (inconclusive) and the IC50 [8] is reported as > 10 µM (inactive).
